≈ marks a conversion by molar mass, not a printed value. Where “and” joins values, the source holds several entries; their conditions need not be identical. Equal entries are not always repeated. Where two headings read alike, the source gives them in different places.
Assays:
P. aeruginosa = test: microbe, parasite or virus in culture; format: cell-based; details: Pseudomonas aeruginosa
Bacteroides fragilis = test: microbe, parasite or virus in culture; format: cell-based
Proteus vulgaris = test: microbe, parasite or virus in culture; format: cell-based
B. fragilis = details: cited from earlier work
Clostridium perfringens = test: microbe, parasite or virus in culture; format: cell-based
S. aureus = test: microbe, parasite or virus in culture; format: cell-based
C. freundii = test: microbe, parasite or virus in culture; format: cell-based
[1] = Blood concentrations of BL-P 2013 after oral administration; format: in vivo; details: mice; oral administration of doses of 25 to 100 mg./kg. of body weight
Providencia rettgeri = test: microbe, parasite or virus in culture; format: cell-based
Enterobacter cloacae = test: microbe, parasite or virus in culture; format: cell-based
Providencia stuartii = test: microbe, parasite or virus in culture; format: cell-based
Enterobacter aerogenes = test: microbe, parasite or virus in culture; format: cell-based; details: Klebsiella aerogenes
Morganella morganii = test: microbe, parasite or virus in culture; format: cell-based
Serratia marcescens = test: microbe, parasite or virus in culture; format: cell-based
[2] = Table 1, C. perfringens, 3 strains (first group), geometric mean, 2 tests, BL-P 2013 as K salt
[3] = Table 1, C. perfringens, 3 strains (second group), geometric mean, 2 tests, BL-P 2013 as K salt
[4] = Table 1, C. perfringens, 8 strains, geometric mean, 2 tests, BL-P 2013 as K salt
[5] = Table 3, C. perfringens, 1 strain
[6] = Table 3, C. perfringens, 2 strains, geometric mean
[7] = Table 3, C. perfringens, 4 strains, geometric mean
[8] = Table 3, C. perfringens, 6 strains, geometric mean

SMILES	MIC (P. aeruginosa) [µg/mL]	MIC (Proteus vulgaris) [µg/mL]	MIC (Clostridium perfringens; [2]) [µg/mL]	MIC (Clostridium perfringens; [3]) [µg/mL]	MIC (Clostridium perfringens; [4]) [µg/mL]	MIC (Clostridium perfringens; [5]) [µg/mL]	MIC (Clostridium perfringens; [6]) [µg/mL]	MIC (Clostridium perfringens; [7]) [µg/mL]	MIC (Clostridium perfringens; [8]) [µg/mL]	MIC (S. aureus)	MIC (S. aureus; Staphylococcus aureus) [µg/mL]	blood concentrations of BL-P 2013 [1]	further results
CC(C)(O/N=C(\C(=O)N[C@@H]1C(=O)N2C(C(=O)[O-])=C(C[n+]3ccccc3)CS[C@H]12)c1csc(N)n1)C(=O)O [Ceftazidime, reference compound]	8 (≈ 14.6 µM)	0.063 (≈ 0.115 µM)	0.04	0.7	3.3	2 (≈ 3.66 µM)	5.7 (≈ 10.4 µM)	0.11 (≈ 0.201 µM)	0.1 (≈ 0.183 µM)	8.6 µg/mL and 9.7 µg/mL	8 (≈ 14.6 µM)	–	susceptibility of Bacteroides fragilis strains (Bacteroides fragilis): resistant; activity against B. fragilis (B. fragilis; Wise et al. 1980): low activity; MIC (C. freundii): 63 µg/mL (≈ 115 µM)
C[C@]1(CCl)[C@H](C(=O)OC2OC(=O)c3ccccc32)N2C(=O)C[C@H]2S1(=O)=O (stereo partly shown)	–	–	–	–	–	–	–	–	–	–	–	Operative blood concentrations	–
CC1(C)[C@H](C(=O)O)N2C(=O)C[C@H]2S1(=O)=O [CP-45,899, Penicillanic acid-1,1-dioxide]	–	–	–	–	–	–	–	–	–	–	–	–	synergism with ampicillin against B. fragilis (B. fragilis; Fass, Abstract No. 605, 1980): highly synergistic
CC(C)(C)C(=O)OCOC(=O)[C@@H]1N2C(=O)C[C@H]2S(=O)(=O)[C@@]1(C)CCl	–	–	–	–	–	–	–	–	–	–	–	Operative blood concentrations	–
C[C@]1(CCl)[C@H](C(=O)O)N2C(=O)C[C@H]2S1(=O)=O [BL-P 2013]	> 125	> 125	> 125	89	> 120	> 32	> 32	27 (≈ 101 µM)	> 32	73 µg/mL and 96 µg/mL and 85 µg/mL	100 (≈ 374 µM)	Operative blood concentrations	MIC (Providencia rettgeri): > 125 µg/mL; MIC (Bacteroides fragilis; Bacteroides fragilis): 21 µg/mL (≈ 78.4 µM); MIC (Enterobacter cloacae): > 125 µg/mL; MIC (Providencia stuartii): > 125 µg/mL; MIC (Enterobacter aerogenes): > 125 µg/mL; MIC (Morganella morganii): > 125 µg/mL; MIC (Serratia marcescens): > 125 µg/mL; MIC (C. freundii; Citrobacter freundii): > 125 µg/mL
